In US12577281B2, “Mitochondrial-derived peptides and analogs thereof for use as a therapy for age-related diseases including cancer” (University of Southern California, priority 2020, dated 2026):
Where a SMILES comes first, the peptide text is derived from it.

Experiment: Safety of NOSH in mice
Assay type: in vivo
Protocol: FIG. 1. NOSH (ND-One short open reading frames (sORF) in Humans) is safe in mice. NOSH has a sequence of […] (SEQ ID NO:215).
NOSH was safe in mice. Further, NOSH increased autophagy. The level of autophagy-related protein microtubule-associated protein 1 light chain 3 (LC3) was increased in PC3 cells treated with 5 μM NOSH for 6 h. FIG. 2.

## CC[C@H](C)[C@H](NC(=O)[C@H](CC(C)C)NC(=O)[C@@H](NC(=O)[C@H](CC(C)C)NC(=O)[C@H](CCSC)NC(=O)[C@H](CC(C)C)NC(=O)[C@H](CO)NC(=O)[C@H](CC(C)C)NC(=O)[C@H](CO)NC(=O)[C@H](CCCNC(=N)N)NC(=O)CNC(=O)[C@H](CO)NC(=O)[C@H](CCCNC(=N)N)NC(=O)[C@H](CCCNC(=N)N)NC(=O)[C@@H](NC(=O)[C@H](C)NC(=O)[C@H](CC(C)C)NC(=O)[C@H](CC(C)C)NC(=O)[C@H](CC(C)C)NC(=O)CNC(=O)[C@H](Cc1ccccc1)NC(=O)[C@H](CC(C)C)NC(=O)[C@H](CCCNC(=N)N)NC(=O)[C@@H](N)CCSC)C(C)C)[C@@H](C)O)C(=O)N[C@@H](CCCNC(=N)N)C(=O)NCC(=O)N[C@@H](CC(C)C)C(=O)N[C@@H](CO)C(=O)N[C@@H](CCCCN)C(=O)N[C@@H](CCCNC(=N)N)C(=O)N[C@@H](CC(C)C)C(=O)NCC(=O)O [NOSH] (H-MRLFGLLLAVRRSGRSLSLMLTLIRGLSKRLG-OH)
  safety in mice: safe
